How the values were obtained:
[1] = test system: scopolamine-induced amnesic mice; test: Y-Maze test in scopolamine-induced amnesic animals; type: in vivo, albino mice; details: scopolamine 1 mg/kg amnesic mice; i.p.; AN-1 10 mg/kg, progesterone 10 mg/kg, galantamine 8 mg/kg; disease group 22.27%
Procedure: (§1) The mice were divided into the following five groups, and each group had six animals. The standard drug and test samples were carefully administered to the mice via the intraperitoneal route.
(§2) Group IV (Progesterone treated group) = Animals treated with 10 mg/kg progesterone and scopolamine 1 mg/kg.
(§3) Group V (Test compound group) = Animals received 10 mg/kg progesterone derivative (AN-1) and 1 mg/kg scopolamine.
To determine the effect of synthesized compounds on short-term learning and memory of experimental mice, a Y-Maze test was used. The Y-Maze apparatus consists of three arms that are fixed at 120° angle from each other and have 30 cm length, 20 cm height, and 8 cm width dimensions. After 30 minutes of giving test compounds intraperitoneally, the mouse was positioned at the arm end in such a way that it faced away from the midpoint of the apparatus and was permitted to search the apparatus for five minutes freely. The arm entry sequence and number by each mouse were recorded for 5 minutes using a digital camera. Alternation is defined as the successive entry into 3 dissimilar arms by a mouse (i.e., CBA, BCA, ABC). When the back paws of a mouse were found inside an arm wholly, the arm entry was considered completed. Seventy percent v/v ethanol was used for cleaning the apparatus and to avoid smell cues. The spontaneous alternation performance (SAP) percentage was calculated using the following formula [37]:
% alternation = [(alternations number) / (total arm entries number – 2)] × 100

[2] = test system: scopolamine-induced amnesic mice; test: Open field test (OFT) in scopolamine-induced amnesic animals; type: in vivo, albino mice; details: i.p., AN-1 10 mg/kg, progesterone 10 mg/kg, galantamine 8 mg/kg; for number of lines crossed: 5 min, disease group 26.33; for number of lines crossed / time spent in the central area: scopolamine 1 mg/kg amnesic mice; for time spent in the central area: 30 min exploration, disease group 4.66; for time spent in the peripheral area: versus scopolamine/disease group
Procedure: as §1, §2, §3
Open field behavioral test was carried out for the assessment of locomotor activities like the number of line crossing. The apparatus was made from plywood having 81×81×28.5 cm dimensions. Sixteen squares (20×20 cm) were made on the base of the apparatus by drawing four horizontal and four vertical lines. […] Furthermore, exploration time spent by mice in central and peripheral areas of the apparatus was also recorded by allowing the mice for 30 minutes to explore the apparatus.

[3] = test system: scopolamine-induced amnesic mice; test: Elevated Plus Maze (EPM) test in scopolamine-induced amnesic animals; type: in vivo, albino mice; details: scopolamine 1 mg/kg amnesic mice, i.p., AN-1 10 mg/kg, progesterone 10 mg/kg, galantamine 8 mg/kg; for retention transfer latency (RTL): 24 h after training, disease group 67 sec; for initial transfer latency (ITL): disease group 73 sec
Procedure: as §1, §2, §3
The EPM behavioral test was performed to assess the learning abilities and long-term spatial memory of the experimental animals. The EPM apparatus has the appearance of a plus sign which was 50 cm elevated from the ground. The apparatus has two open arms (50 cm long and 10 cm wide), and two closed arms having dimensions of 20, 50, and 10 cm in height, length, and width, respectively. The open and closed arms were joined with a 10 × 10 central square.
After 30 minutes of the intraperitoneal drug administration on the seventh day of treatment, mice of each group were placed over the open arm end of the EPM apparatus in such a way that their faces were away from the midpoint of the apparatus. Transfer latency (TL) is the time a mouse takes to enter the closed arm entirely with all its legs from the open arm of the apparatus. The time of initial transfer latency (ITL) was observed, and then the animals were allowed freely for 1.5 minutes to search the EPM apparatus.
After twenty-four hours of the training period, test trials were conducted to determine the retention of tasks that were learnt during training. Retention transfer latency (RTL) was measured by placing the experimental mice at the open end of the apparatus, ensuring that they faced away from its midpoint. The mouse was allowed to enter the closed arm entirely with all its legs. A decline in TL compared to ITL indicated an improvement in memory.

[4] = target: T1, BChE (source equine serum) (Equus caballus, UniProt P81908); test: biochemical; details: for inhibition at 62.5 µg/mL / inhibition at 125 µg/mL / inhibition at 250 µg/mL / inhibition at 500 µg/mL / inhibition at 1000 µg/mL: read-out: % BChE Inhibition
T1 construct: from tissue; host or cells: equine serum
Procedure: (§4) The cholinesterase inhibitory potentials of our synthesized compounds were evaluated against cholinesterase enzymes (AChE/BChE). The AChE (source Electric eel) and BChE (source equine serum) were used in the study following previously published Ellman's assay. The assay basic principle involves the hydrolytic breakdown of acetylthiocholine iodide (ATChI) by AChE and butyryl thiocholine iodide (BTChI) by BChE enzymes, leading to the formation of an intermediate compound which is subsequently complexed with 5,5-dithio bis nitrobenzoic acid (DTNB) to form a UV-detectable compound. The yellowish color product indicates the hydrolysis of ATChI and BTChI substrates by respective enzymes, which were analyzed at 412 nm using a UV-visible spectrophotometer. […] A test sample of 1000 µl was taken in a cuvette, to which enzyme solution (50 µl) and DTNB reagent of 50 µL were added. The AChE (0.03 U/ml) and BChE (0.01 U/ml) solutions were prepared in 0.1 M phosphate buffer having pH 8.0. The ATChI and BTChI substrate solutions (0.0005 M) and 0.0002273 M solution of DTNB were prepared using distilled water and stored at 8°C before further use. For 15 minutes, the solution mixture was incubated at 30 °C, after which a solution of the substrate (50 µl) was added and then subjected to spectroscopic analysis. Using a double beam spectrophotometer, the sample absorbance was measured for 4 minutes at 412 nm beside the time of reaction. […] All values were taken in triplicate under the same conditions.
(§5) Enzymatic activity percentage=V/Vmaxx100
(§6) V is the reaction rate in the inhibitor's presence, whereas Vmax is the reaction rate in the absence of the inhibitor.

DPPH antioxidant assay = type: physicochemical; details: for % Inhibition (DPPH free radicals): mean ± SEM
Procedure: To evaluate the in-vitro antioxidant potential of the synthesized derivatives, a previously reported 1,1 Diphenyl, 2 Picrylhydrazyl (DPPH) assay was utilized. The DPPH solution was prepared by dissolving twenty-four mg DPPH in methanol (100 ml). Test sample solutions in various concentrations (62.50 to 1000 μg/mL) were also prepared. From each dilution, 1 ml sample solution was taken to which 1 ml solution of DPPH was added. The solution mixture was incubated at 23°C for 30 minutes in the dark and then subjected to a UV-visible spectrophotometer to note the absorbance at 517 nm. The absorbance values of all samples were taken in triplicate. Ascorbic acid served as positive control, while negative control only contained a solution of DPPH having no test samples. The % free radical scavenging potential of our compounds was determined by the given formula.
% free radical scavenging activity = [drawing 2] x100
X is the control absorbance, whereas X1 is the absorbance of the test sample.

[5] = target: T2, AChE (source Electric eel) (Electrophorus electricus, UniProt O42275); test: biochemical; details: for inhibition at 62.5 µg/mL / inhibition at 125 µg/mL / inhibition at 250 µg/mL / inhibition at 500 µg/mL / inhibition at 1000 µg/mL: read-out: % AChE Inhibition
T2 construct: from tissue
Procedure: as §4, §5, §6

T1 sequence (P81908 whole entry): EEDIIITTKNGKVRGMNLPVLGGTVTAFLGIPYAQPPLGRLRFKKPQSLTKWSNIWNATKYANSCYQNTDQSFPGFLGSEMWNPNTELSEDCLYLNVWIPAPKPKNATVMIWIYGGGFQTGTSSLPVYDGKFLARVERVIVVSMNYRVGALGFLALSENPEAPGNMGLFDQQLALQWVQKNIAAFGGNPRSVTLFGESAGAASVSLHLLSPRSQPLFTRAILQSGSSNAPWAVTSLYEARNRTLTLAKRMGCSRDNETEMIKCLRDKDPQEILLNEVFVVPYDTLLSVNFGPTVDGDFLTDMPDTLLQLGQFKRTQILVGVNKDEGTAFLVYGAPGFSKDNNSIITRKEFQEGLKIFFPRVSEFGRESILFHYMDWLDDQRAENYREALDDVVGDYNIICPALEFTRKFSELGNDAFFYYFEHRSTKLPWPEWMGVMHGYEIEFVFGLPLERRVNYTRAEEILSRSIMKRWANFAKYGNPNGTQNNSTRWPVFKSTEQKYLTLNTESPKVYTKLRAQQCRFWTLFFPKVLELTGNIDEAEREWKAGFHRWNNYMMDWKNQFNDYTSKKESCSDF
T2 sequence (O42275 24-633): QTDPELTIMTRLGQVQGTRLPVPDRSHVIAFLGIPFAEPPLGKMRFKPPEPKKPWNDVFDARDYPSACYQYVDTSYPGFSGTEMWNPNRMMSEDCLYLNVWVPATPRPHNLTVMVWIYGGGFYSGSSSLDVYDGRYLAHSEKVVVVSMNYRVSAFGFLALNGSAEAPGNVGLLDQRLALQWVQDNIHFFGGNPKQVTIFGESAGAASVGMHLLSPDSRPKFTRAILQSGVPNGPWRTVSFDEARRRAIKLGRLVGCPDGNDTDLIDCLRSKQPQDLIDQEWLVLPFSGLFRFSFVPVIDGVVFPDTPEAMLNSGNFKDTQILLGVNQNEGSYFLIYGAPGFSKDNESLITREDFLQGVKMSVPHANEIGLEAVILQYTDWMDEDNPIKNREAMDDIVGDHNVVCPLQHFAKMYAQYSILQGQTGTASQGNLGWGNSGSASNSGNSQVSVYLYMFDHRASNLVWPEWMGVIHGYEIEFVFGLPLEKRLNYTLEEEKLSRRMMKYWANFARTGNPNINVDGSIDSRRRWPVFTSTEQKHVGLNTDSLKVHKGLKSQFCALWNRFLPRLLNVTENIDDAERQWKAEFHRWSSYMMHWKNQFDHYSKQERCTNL

SMILES	inhibition at 62.5 µg/mL [4]	inhibition at 125 µg/mL [4]	inhibition at 250 µg/mL [4]	inhibition at 500 µg/mL [4]	inhibition at 1000 µg/mL [4]	IC50 (DPPH antioxidant assay)	% Inhibition (DPPH free radicals) (DPPH antioxidant assay; 62.5 µg/ml)	% Inhibition (DPPH free radicals) (DPPH antioxidant assay; 125 µg/ml)	% Inhibition (DPPH free radicals) (DPPH antioxidant assay; 250 µg/ml)	% Inhibition (DPPH free radicals) (DPPH antioxidant assay; 500 µg/ml)	% Inhibition (DPPH free radicals) (DPPH antioxidant assay; 1000 µg/ml)	IC50 [4]	IC50 [5]	inhibition at 62.5 µg/mL [5]	inhibition at 125 µg/mL [5]	inhibition at 250 µg/mL [5]	inhibition at 500 µg/mL [5]	inhibition at 1000 µg/mL [5]	further results
CC(=O)[C@H]1CC[C@H]2[C@@H]3CCC4=CC(=O)CC[C@]4(C)[C@H]3CC[C@]12C [progesterone]																			spontaneous alternation [1]: 40.001%; number of lines crossed [2]: 42; time spent in the central area [2]: 9.66 mint; time spent in the peripheral area [2]: significant (p˂0.05) decline in time spent peripherally; retention transfer latency (RTL) [3]: 50.33 s; initial transfer latency (ITL) [3]: 56.5 s
COc1ccc2c3c1O[C@H]1C[C@@H](O)C=C[C@@]31CCN(C)C2 [Galantamine, reference compound]	67.2%	72.9%	77.4%	84.4%	89.5 ± 1.93%														spontaneous alternation [1]: 47.56%; number of lines crossed [2]: 50.33; time spent in the central area [2]: 13 mint; time spent in the peripheral area [2]: significantly (p<0.01) less time in the peripheral area; retention transfer latency (RTL) [3]: 38.33 s; initial transfer latency (ITL) [3]: 47.33 s
C/C(=N/Cc1ccccc1)[C@H]1CC[C@H]2[C@@H]3CCC4=CC(=O)CC[C@]4(C)[C@H]3CC[C@]12C [AN5, (8S,9S,10R,13S,14S)-17-((Z)-1-(benzylimino)ethyl)-10,13-dimethyl-1,2,6,7,8,9,10,11, 12,13,14,15,16,17-tetradecahydro-3H cyclopenta[a]phenan-thren-3-one]	58.1%	65.9%	71.4%	75.8%	85.5 ± 2.83%	110 µM	52.18 ± 1.42%	56.99 ± 2.50%	65.46 ± 1.83%	67.51 ± 2.56%	73.12 ± 1.04%	63 µM	156 µM	50.4%	59.7%	65.2%	77.3%	83.5 ± 2.31%	
O=C1O[C@H]([C@@H](O)CO)C(O)=C1O [Ascorbic Acid, Ascorbic acid, reference compound]						54.1 µM	67.69 ± 2.18%	71.25 ± 4.29%	74.50 ± 3.04%	86.00 ± 0.70%	91.17 ± 1.62%								
C/C(=N/Cc1ccc(Cl)cc1)[C@H]1CC[C@H]2[C@@H]3CCC4=CC(=O)CC[C@]4(C)[C@H]3CC[C@]12C [AN4, (8S,9S,10R,13S,14S,17S)-17-((Z)-1-((4-chlorobenzyl)imino)ethyl)-10,13-dimethyl-1,2,6,7,8,9,10,11,12,13,14,15,16,17-tetradecahydro-3H-cyclopenta [a]phenanthren-3-one]	49.5%	56.9%	63.1%	64.7%	76.3 ± 1.56%	188 µM	46.88 ± 0.65%	55.52 ± 3.43%	60.69 ± 1.92%	66.80 ± 3.47%	69.87 ± 2.81%	149 µM	213 µM	47%	52.7%	60.3%	67.7%	70 ± 2.26%	
COc1ccc(C/N=C(/C)[C@H]2CC[C@H]3[C@@H]4CCC5=CC(=O)CC[C@]5(C)[C@H]4CC[C@]23C)cc1OC [AN3, (8S,9S,10R,13S,14S,17S)-17-((Z)-1-((3,4-dimethoxybenzyl)imino)ethyl)-10,13-dimethyl-1,2,6,7,8,9,10,11,12,13,14,15,16,17-tetradecahydro-3H-cyclo-penta[a]phenanthren-3-one]	55.5%	59.9%	64.3%	81.8%	87.9 ± 1.96%	86.4 µM	54.18 ± 2.16%	56.86 ± 2.33%	61.18 ± 2.23%	66.44 ± 2.58%	72.32 ± 1.37%	112 µM	133 µM	50.7%	62.9%	64.6%	78.2%	82.8 ± 2.02%	
C/C(=N/Cc1ccc(C)cc1)[C@H]1CC[C@H]2[C@@H]3CCC4=CC(=O)CC[C@]4(C)[C@H]3CC[C@]12C [AN2, (8S,9S,10R,13S,14S)-17-((Z)-1-((4-methylbenzyl)imino)ethyl)-10,13-dimethyl-1,2,6,7,8,9,10,11,12,13,14,15,16,17-tetradecahydro-3H-cyc-lopenta[a]phenanthren-3-one]	50.8%	52.9%	74.1%	72%	77.5 ± 1.29%	62.5 µM	55.65 ± 2.44%	57.44 ± 2.47%	65.77 ± 3.32%	66.26 ± 1.60%	71.47 ± 1.83%	138 µM	173 µM	48.3%	57.4%	64.3%	75.7 ± 1.26%	75.7 ± 2.82%	
